Where two headings read alike, the source gives them in different places.
Test: Caco-2 permeability assay
Assay type: in vitro ADME
Details: human; for Papp A→B at 2 h, 5 μM / Papp B→A at 2 h, 5 μM: Caco-2, 5 μM
Method: Caco-2 cells were cultured in 10% FBS DMEM for 14-21 days before assays. […] HBSS was added to the opposite chamber. After 2 hours incubation at 37°C, samples were analyzed by LC-MS/MS. Fluorescein leakage was tested by adding 100 μM fluorescein to the upper chamber and measuring fluorescence after 30 minutes.

[1] = Caco-2, Caco-2, B-A, read-out: Recovery B-A%

recovery at 2 h, 5 μM (Caco-2, Caco-2, A-B, read-out: Recovery A-B%) [%]	recovery at 2 h, 5 μM [1] [%]	Papp A→B at 2 h, 5 μM [×10⁻⁶ cm/s]	Papp B→A at 2 h, 5 μM [×10⁻⁶ cm/s]	SMILES
78.5	101	0.9	26.1	C[C@H]1O[C@@H](O[C@H]2[C@@H](O)C[C@H](O[C@H]3[C@@H](O)C[C@H](O[C@H]4CC[C@@]5(C)[C@H](CC[C@@H]6[C@@H]5C[C@@H](O)[C@]5(C)[C@@H](C7=CC(=O)OC7)CC[C@]65O)C4)O[C@@H]3C)O[C@@H]2C)C[C@H](O)[C@@H]1O [Digoxin]
	84.9	22.3	14.7	CC(C)NCC(O)COc1cccc2ccccc12 (stereo not shown) [Propraolol, Propranolol]
